The source made the active and inactive calls. Rule as the data show it, for most assays here: actives have a measured Kd and inactives only a lower limit.
Key:
[1] = target: T1, Serine/threonine-protein kinase ICK (Homo sapiens, UniProt Q9UPZ9)
T1 sequence (Q9UPZ9 whole entry): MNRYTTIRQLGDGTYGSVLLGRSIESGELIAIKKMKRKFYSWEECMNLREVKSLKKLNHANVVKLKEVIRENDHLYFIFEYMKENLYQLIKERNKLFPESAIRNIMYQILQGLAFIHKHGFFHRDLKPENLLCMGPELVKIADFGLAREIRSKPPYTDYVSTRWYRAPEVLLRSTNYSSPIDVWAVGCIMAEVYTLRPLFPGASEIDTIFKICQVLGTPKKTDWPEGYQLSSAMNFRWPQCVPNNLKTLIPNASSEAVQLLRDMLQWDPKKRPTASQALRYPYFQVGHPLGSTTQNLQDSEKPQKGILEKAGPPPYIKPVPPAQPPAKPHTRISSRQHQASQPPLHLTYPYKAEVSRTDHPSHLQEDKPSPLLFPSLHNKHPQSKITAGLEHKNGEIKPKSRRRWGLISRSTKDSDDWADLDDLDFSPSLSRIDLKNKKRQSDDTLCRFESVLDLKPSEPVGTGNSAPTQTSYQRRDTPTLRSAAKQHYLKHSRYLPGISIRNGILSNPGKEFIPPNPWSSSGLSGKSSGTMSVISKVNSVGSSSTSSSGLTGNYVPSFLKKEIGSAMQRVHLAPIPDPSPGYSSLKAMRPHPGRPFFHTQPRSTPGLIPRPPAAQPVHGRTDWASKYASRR

[2] = target: Ribosomal protein S6 kinase alpha-6 (Homo sapiens, UniProt Q9UK32)
[3] = target: Tyrosine-protein kinase Fer (Homo sapiens, UniProt P16591)
[4] = target: T2, Serine/threonine-protein kinase Nek3 (Homo sapiens, UniProt P51956)
T2 sequence (P51956 whole entry): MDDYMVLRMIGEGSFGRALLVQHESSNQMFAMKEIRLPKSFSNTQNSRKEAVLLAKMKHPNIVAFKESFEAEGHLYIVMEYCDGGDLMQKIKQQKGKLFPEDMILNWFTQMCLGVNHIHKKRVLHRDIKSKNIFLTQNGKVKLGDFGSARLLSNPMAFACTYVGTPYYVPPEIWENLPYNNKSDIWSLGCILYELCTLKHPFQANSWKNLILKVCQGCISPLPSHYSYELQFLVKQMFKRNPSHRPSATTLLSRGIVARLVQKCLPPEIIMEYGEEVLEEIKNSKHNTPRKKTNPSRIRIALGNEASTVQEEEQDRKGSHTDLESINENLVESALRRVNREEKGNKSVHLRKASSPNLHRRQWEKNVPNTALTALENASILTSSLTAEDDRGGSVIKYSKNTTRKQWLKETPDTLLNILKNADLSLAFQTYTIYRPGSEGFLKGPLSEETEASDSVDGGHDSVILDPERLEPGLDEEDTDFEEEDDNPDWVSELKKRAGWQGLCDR

[5] = target: Ephrin type-A receptor 4 (Homo sapiens, UniProt P54764)
[6] = target: Guanine nucleotide-binding protein G(i) subunit alpha-2 (Homo sapiens, UniProt P04899)
[7] = target: T3, Mitogen-activated protein kinase kinase kinase kinase 3 (Homo sapiens, UniProt Q8IVH8)
T3 sequence (Q8IVH8 whole entry): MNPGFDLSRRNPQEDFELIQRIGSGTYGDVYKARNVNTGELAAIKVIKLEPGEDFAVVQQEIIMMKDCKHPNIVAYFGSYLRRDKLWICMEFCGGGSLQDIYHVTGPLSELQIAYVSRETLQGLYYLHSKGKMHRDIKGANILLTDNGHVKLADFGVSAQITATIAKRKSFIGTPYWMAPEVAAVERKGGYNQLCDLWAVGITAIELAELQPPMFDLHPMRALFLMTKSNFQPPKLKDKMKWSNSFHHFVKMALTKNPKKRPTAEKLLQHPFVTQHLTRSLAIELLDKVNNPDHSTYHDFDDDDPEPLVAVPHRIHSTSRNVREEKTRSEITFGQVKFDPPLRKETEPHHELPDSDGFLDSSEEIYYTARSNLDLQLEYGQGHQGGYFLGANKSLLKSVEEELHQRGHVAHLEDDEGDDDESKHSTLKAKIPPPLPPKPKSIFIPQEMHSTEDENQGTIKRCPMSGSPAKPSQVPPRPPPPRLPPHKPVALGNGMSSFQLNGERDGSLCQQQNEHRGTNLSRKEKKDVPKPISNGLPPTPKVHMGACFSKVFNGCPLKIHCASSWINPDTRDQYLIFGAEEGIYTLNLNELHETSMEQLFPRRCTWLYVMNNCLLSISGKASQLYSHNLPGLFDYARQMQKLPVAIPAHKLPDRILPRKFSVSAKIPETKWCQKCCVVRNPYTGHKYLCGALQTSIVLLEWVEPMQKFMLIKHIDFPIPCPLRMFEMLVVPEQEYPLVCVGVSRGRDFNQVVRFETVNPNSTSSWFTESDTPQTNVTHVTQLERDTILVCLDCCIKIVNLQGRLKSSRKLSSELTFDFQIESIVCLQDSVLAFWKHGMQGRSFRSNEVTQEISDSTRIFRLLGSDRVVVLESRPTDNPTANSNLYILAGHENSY

[8] = target: T4, NUAK family SNF1-like kinase 2 (Homo sapiens, UniProt Q9H093)
T4 sequence (Q9H093 whole entry): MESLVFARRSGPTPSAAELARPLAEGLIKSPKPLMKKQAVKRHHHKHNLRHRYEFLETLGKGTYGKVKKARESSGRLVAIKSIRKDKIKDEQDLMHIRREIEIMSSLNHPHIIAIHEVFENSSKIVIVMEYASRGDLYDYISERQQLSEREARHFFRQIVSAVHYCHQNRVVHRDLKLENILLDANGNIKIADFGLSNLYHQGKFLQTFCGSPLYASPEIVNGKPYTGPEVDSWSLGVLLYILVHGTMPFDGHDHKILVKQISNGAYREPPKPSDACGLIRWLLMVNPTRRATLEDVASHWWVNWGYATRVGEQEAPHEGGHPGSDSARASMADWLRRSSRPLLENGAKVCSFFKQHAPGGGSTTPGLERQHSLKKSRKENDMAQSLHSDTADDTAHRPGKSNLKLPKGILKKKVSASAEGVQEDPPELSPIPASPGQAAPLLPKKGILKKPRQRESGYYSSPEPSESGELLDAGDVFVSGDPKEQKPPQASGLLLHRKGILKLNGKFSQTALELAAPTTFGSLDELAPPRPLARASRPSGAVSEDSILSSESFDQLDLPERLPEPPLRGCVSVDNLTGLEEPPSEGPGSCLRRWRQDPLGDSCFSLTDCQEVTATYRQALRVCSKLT
Also: in the data inactive means no Kd found up to 30 µM.

Chain of Guanine nucleotide-binding protein G(i) subunit alpha-2 (P04899 whole entry): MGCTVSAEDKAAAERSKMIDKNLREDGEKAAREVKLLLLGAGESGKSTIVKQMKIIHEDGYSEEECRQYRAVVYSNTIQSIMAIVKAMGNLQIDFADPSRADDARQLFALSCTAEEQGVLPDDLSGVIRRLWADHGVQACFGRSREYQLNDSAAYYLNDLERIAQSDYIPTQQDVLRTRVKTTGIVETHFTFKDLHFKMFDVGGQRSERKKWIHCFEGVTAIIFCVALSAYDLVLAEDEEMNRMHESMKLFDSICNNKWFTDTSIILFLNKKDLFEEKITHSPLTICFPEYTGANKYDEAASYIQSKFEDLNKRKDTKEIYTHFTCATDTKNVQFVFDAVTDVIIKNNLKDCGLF
Chain of Tyrosine-protein kinase Fer (P16591 whole entry): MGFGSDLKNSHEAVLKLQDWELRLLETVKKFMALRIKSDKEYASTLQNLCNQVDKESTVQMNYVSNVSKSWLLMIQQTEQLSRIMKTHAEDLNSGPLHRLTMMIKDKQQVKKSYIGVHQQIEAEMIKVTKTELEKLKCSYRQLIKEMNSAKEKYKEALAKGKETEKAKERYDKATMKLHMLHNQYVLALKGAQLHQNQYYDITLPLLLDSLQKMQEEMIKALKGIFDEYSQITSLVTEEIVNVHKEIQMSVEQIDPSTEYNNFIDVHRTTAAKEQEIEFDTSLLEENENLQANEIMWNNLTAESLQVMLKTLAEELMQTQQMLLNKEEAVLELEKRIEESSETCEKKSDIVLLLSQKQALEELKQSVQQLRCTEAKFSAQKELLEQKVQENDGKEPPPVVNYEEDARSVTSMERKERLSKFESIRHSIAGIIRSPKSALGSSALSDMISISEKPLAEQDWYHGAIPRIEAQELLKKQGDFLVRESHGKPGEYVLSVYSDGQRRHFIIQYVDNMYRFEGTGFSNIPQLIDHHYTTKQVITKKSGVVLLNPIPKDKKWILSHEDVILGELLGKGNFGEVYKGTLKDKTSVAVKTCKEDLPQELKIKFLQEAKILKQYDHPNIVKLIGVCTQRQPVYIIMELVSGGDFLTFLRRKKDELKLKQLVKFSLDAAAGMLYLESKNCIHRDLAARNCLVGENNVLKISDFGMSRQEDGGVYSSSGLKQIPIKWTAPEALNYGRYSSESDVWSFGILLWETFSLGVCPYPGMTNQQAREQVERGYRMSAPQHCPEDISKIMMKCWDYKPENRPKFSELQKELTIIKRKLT
Chain of Ribosomal protein S6 kinase alpha-6 (Q9UK32 whole entry): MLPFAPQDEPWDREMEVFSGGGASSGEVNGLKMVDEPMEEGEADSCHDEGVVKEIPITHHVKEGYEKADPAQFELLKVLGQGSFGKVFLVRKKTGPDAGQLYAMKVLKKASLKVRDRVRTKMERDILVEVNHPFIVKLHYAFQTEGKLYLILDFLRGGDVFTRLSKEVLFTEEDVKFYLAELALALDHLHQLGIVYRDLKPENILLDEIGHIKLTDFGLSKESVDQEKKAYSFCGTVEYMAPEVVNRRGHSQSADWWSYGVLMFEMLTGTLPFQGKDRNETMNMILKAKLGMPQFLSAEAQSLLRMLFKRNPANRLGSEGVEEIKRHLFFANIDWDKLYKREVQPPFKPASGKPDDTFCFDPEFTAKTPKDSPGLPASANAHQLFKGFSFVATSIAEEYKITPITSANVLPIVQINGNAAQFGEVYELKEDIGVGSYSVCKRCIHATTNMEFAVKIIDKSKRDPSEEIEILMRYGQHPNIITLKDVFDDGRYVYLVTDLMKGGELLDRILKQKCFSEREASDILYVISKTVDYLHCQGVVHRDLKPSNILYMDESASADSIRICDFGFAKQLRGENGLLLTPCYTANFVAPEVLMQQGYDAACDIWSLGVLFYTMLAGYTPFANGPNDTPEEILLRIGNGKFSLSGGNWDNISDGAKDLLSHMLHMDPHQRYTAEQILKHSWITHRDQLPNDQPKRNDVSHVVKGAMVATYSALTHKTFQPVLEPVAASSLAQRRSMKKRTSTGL
Chain of Ephrin type-A receptor 4 (P54764 whole entry): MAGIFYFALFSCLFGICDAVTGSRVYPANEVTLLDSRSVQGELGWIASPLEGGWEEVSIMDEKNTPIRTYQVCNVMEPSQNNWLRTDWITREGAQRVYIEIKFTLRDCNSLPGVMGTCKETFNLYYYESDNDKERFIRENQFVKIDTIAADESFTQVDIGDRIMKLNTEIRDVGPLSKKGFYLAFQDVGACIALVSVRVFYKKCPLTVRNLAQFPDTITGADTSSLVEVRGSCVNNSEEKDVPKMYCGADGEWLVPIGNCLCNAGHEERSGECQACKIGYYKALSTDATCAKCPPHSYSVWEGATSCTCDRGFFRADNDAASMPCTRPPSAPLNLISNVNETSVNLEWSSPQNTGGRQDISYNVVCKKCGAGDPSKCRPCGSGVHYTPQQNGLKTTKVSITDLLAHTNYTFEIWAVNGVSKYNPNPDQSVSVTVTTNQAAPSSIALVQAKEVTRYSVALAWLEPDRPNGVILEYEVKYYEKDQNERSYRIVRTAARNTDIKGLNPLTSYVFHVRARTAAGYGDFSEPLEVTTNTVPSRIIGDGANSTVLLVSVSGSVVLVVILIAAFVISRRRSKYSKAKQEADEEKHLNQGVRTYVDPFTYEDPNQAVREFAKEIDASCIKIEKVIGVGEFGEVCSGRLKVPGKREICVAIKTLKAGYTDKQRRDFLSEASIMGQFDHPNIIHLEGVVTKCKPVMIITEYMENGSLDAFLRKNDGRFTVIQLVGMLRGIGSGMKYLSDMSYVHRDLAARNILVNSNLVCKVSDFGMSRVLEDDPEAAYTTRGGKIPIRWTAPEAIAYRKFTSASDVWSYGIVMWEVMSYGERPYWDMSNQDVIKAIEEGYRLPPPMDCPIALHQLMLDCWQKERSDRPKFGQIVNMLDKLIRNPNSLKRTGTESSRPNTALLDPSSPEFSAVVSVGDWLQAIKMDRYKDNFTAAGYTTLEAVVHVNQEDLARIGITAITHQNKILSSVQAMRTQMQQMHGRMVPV

Structure (SMILES) | Kd [1] | Kd [2] | Kd [3] | Kd [4] | Kd [5] | Kd [6] | Kd [7] | Kd [8]
COc1cccc2cc(-c3nc([C@H]4CC[C@H](C(=O)O)CC4)n4ncnc(N)c34)[nH]c12 [OSI-027] | > 30 µM (inactive) | > 30 µM (inactive) | > 30 µM (inactive) | > 30 µM (inactive) | > 30 µM (inactive) | > 30 µM (inactive) | > 30 µM (inactive) | > 30 µM (inactive)
O=C(Nc1ccc(OC(F)(F)F)cc1)c1sccc1NCc1ccnc2ccccc12 [OSI-930] | > 30 µM (inactive) | > 30 µM (inactive) | > 30 µM (inactive) | > 30 µM (inactive) | > 30 µM (inactive) | > 30 µM (inactive) | > 30 µM (inactive) | > 30 µM (inactive)
C=CC(=O)Nc1cc(Nc2nccc(-c3cn(C)c4ccccc34)n2)c(OC)cc1N(C)CCN(C)C [OSIMERTINIB] | > 30 µM (inactive) | > 30 µM (inactive) | > 30 µM (inactive) | > 30 µM (inactive) | > 30 µM (inactive) | > 30 µM (inactive) | > 30 µM (inactive) | > 30 µM (inactive)
FC(F)(F)c1ccc(CNc2ccc(Cc3c[nH]c4ncc(Cl)cc34)cn2)cn1 [PEXIDARTINIB] | > 30 µM (inactive) | > 30 µM (inactive) | > 30 µM (inactive) | > 30 µM (inactive) | > 30 µM (inactive) | > 30 µM (inactive) | > 30 µM (inactive) | > 30 µM (inactive)
COc1cc(F)c(F)c(Nc2ccc(I)cc2F)c1NS(=O)(=O)C1(C[C@H](O)CO)CC1 [REFAMETINIB] | > 30 µM (inactive) | > 30 µM (inactive) | > 30 µM (inactive) | > 30 µM (inactive) | > 30 µM (inactive) | > 30 µM (inactive) | > 30 µM (inactive) | > 30 µM (inactive)
COCCN1CCN(Cc2ccc(-c3n[nH]c4c3C(=O)c3c(NC(=O)NN5CCOCC5)cccc3-4)cc2)CC1 [RGB-286638] | 0.008 µM (active) | > 30 µM (inactive) | > 30 µM (inactive) | > 30 µM (inactive) | > 30 µM (inactive) | > 30 µM (inactive) | > 30 µM (inactive) | > 30 µM (inactive)
C=CCN(/C=C1/C(=O)O[C@H](COC)[C@@]2(C)C1=C(O)C(=O)C1=C2[C@H](OC(C)=O)C[C@]2(C)C(=O)CC[C@@H]12)CC=C [SONOLISIB] | > 30 µM (inactive) | > 30 µM (inactive) | > 30 µM (inactive) | > 30 µM (inactive) | > 30 µM (inactive) | > 30 µM (inactive) | > 30 µM (inactive) | > 30 µM (inactive)

Results, then the compound that gave them:

Kd [1] | Kd [2] | Kd [3] | Kd [4] | Kd [5] | Kd [6] | Kd [7] | Kd [8] | Structure (SMILES)
> 30 µM (inactive) | > 30 µM (inactive) | > 30 µM (inactive) | > 30 µM (inactive) | > 30 µM (inactive) | > 30 µM (inactive) | > 30 µM (inactive) | > 30 µM (inactive) | C#Cc1cccc(Nc2ncnc3cc4c(cc23)OCCOCCOCCO4)c1 [ICOTINIB]
> 30 µM (inactive) | > 30 µM (inactive) | > 30 µM (inactive) | > 30 µM (inactive) | > 30 µM (inactive) | > 30 µM (inactive) | > 30 µM (inactive) | > 30 µM (inactive) | COc1cc2ncnc3c2cc1OCCCCCN(C)Cc1ccc(Br)cc1N3 [JNJ-26483327]
> 30 µM (inactive) | > 30 µM (inactive) | 1.11 µM (active) | > 30 µM (inactive) | > 30 µM (inactive) | > 30 µM (inactive) | > 30 µM (inactive) | > 30 µM (inactive) | C=CC(=O)Nc1cccc(Nc2nc(Nc3ccc(N4CCN(C(C)=O)CC4)cc3OC)ncc2C(F)(F)F)c1 [ROCILETINIB]
> 30 µM (inactive) | > 30 µM (inactive) | > 30 µM (inactive) | > 30 µM (inactive) | > 30 µM (inactive) | > 30 µM (inactive) | > 30 µM (inactive) | > 30 µM (inactive) | CC(C)(O)CC(=O)NCCn1ccc2ncnc(Nc3ccc(Oc4cccc(C(F)(F)F)c4)c(Cl)c3)c21 [TAK-285]

Reference: ChEMBL document CHEMBL3991601, “The target landscape of clinical kinase drugs” (Science, 2017)
